Assay results reported in patent US6479251B1, “Colorimetric test for agents that induce mitochondrial dysfunction” (priority 1999, dated 2002).

Legend:
Assay type in all cases: cell-based
[1] = system: S. cerevisiae strain YPH499; assay: Colorimetric test: red to white colony colour change on YPD agar after treatment
Description: (§1) FIGS. 1A and 1B show visual color identification of mitochondrial dysfunction. The wild type S. cerevisiae YPH499 was gown in YPD (1% yeast extract, 2% bactopeptone and 2% dextrose) to log phase at 30° C. The log phase culture was centrifuged, resuspended in water containing adriamycin (150 μg/ml) for one hour. Appropriate dilutions of the culture were plated on YPD agar and incubated at 30° C. for 3-4 days. […] FIG. 1B: white colonies from treated cells in FIG. 1A wee replicated on to agar medium containing 2% dextrose (left) and 2% glycerol (right).
The wild type S. cerevisiae YPH499 was grown in YPD to log phase at 30° C. The culture was centrifuged, resuspended in water containing various concentrations of adriamycin as indicated for one hour. Appropriate dilutions of the culture were plated on YPD agar and incubated at 30° C. Colonies were counted after 3-4 days. Values presented are the average of four determinants.
FIGS. 5A, 5B, and 5C show the percentage of white colonies produced after treatment with physical or chemical agents. Exponentially growing cells were treated with various doses of UV (FIG. 5A) or various lengths of time (MMS (FIG. 5B) and H2O2 (FIG. 5C)). For UV treatment appropriate dilutions of culture were plated on YPD agar and exposed to UV using STRATALINKER (Stratagene). For MMS and H2O2 treatments, cells were exposed in liquid YPD medium.
(§2) The yeast S. cerevisiae strain YPH499 (a ura3-52, lys2-801, ade2-101, trpl-63, his3-200, leul-1) was grown in YPD to log phase. Cell were then harvested and suspended in water containing various concentration of adriamycin for one hour. In order to test whether white colonies were defective in mitochondrial function, we transferred the colonies to an agar media containing glycerol (nonfermentable carbon source). Utilization of glycerol by an eukaryotic cell requires intact mitochondrial function (2). […] The number of surviving colonies that were white reached about 30% at 150 μglml concentration.

[2] = system: mitDNA of S. cerevisiae white colonies
Description: FIGS. 3A-3D show mitochondrial genome changes induced by adriamycin. Various white S. cerevisiae colonies produced after treatment with adriamycin were grown to log phase and stained with DAPI, which stains DNA. FIG. 3A: wild type; FIG. 3B: a Rho^0 strain (devoid of mitochondrial genome); FIG. 3C: a representative white cell lacking mitochondrial genome; and FIG. 3D: a representative cell containing mutant mitochondrial DNA.
White S. cerevisiae colonies produced after treatment with physical or chemical agents were grown to log phase and stained with DAPI. FIG. 6A: Wild type; FIG. 6B: A Rho^0 strain; FIG. 6C: adriamycin; FIG. 6D: hydrogen peroxide; FIG. 6E: UV; FIG. 6F: Methylmethane sulfonate. For FIGS. 6C-F, the cells on the right contains mutant mitDNA and the cell on the left lacks a mitochondrial genome.
DNA was stained with a fluorescent dye, 4,6-diamidino-2-phenylindole (DAPI)(2). […] In this study, a known yeast strain lacking mitDNA (Rho^0) served as a negative control (FIG. 3B, only nuclear DNA is stained).

[3] = system: S. cerevisiae strain YPH499; assay: Growth of white colonies on glycerol (nonfermentable carbon source) agar
Description: as §1, §2

[4] = system: S. cerevisiae diploid cells (white colonies x Rho0); assay: Mating of haploid white colonies with Rho0 strain YPH 500, growth of diploids on glycerol medium; settings: a total of 143 diploid cells from white colonies after adriamycin treatment mated with Rho0 (FIG. 4)
Description: FIGS. 4A and 4B show growth comparison of haploid and diploid S. cerevisiae cells. FIG. 4A: Various white colonies produced after treatment with adriamycin were streaked on YP glycerol plates. FIG. 4B: The same white colonies were mated with an opposite mating type strain of yeast lacking mitochondrial DNA on YPD plates. The diploid yeast strains were tested for growth on YP glycerol medium.
The genetic approach employed involved mating haploid white colonies generated after adriamycin treatment (shown in FIG. 2, “a” mating type) with a haploid Rho^0 strain (of opposite mating type “α” YPH 500 (ura3-52, lys2-801, ade2-101, trpl-63, his3-200, leu2-1) lacking mitDNA (3). The diploid cells (a total of 143) were tested for growth on glycerol medium. If the white cells contained a mutation in a nuclear gene affecting the mitochondrial function, it can be expected that diploid cells will grow on glycerol because a nuclear defect can be complemented with Rho^0 (because it contains intact nuclear DNA but lacks mitDNA). […] Together, these studies indicate that adriamycin preferentially damages mitDNA. This preferential damage by adriamycin can result either in complete loss of mitDNA (due to severe damage) and/or mutations in mitDNA (due to minor damage FIG. 3).

Structure (SMILES)	increase in white colonies [1]	microscopic and genetic tests of white colonies (mitDNA status) ([2]; white colonies obtained after treatment with physical or chemical agents (FIG. 6))	growth of white colonies on glycerol [3]	number of surviving colonies that were white ([1]; adriamycin 150 μglml in water for one hour, plated on YPD agar, 30° C., 3-4 days)	white colonies versus dose ([1]; various concentrations of adriamycin in water for one hour (FIG. 2))	DAPI DNA staining of white colonies (mitDNA present or lost) ([2]; white colonies obtained after adriamycin treatment (FIG. 3))	growth of randomly chosen white colonies on glycerol plates ([3]; white colonies obtained after adriamycin treatment (FIG. 1B))	growth of diploid cells on glycerol medium [4]
COS(C)(=O)=O [MMS, methyl methane sulphonate]	did	either contained mutant mitDNA or lacked mitDNA at all	do not grow on glycerol	–	–	–	–	–
OO [H2O2, hydrogen peroxide]	did not result in increased white colonies	–	–	–	–	–	–	–
COc1cccc2c1C(=O)c1c(O)c3c(c(O)c1C2=O)C[C@@](O)(C(=O)CO)C[C@@H]3O[C@H]1C[C@H](N)[C@H](O)[C@H](C)O1 [adriamycin]	–	–	–	about 30%	increase number of white colonies with increasing dose	two types of DNA staining	none were able to grow	none grew on glycerol medium
